pIC50: −log10 of the molar value.

The test system of assay [1] is HCT-116 human colorectal carcinoma cells. The assay is described as follows: Alamar Blue (AB) cell proliferation assay, HCT-116. The assay is classed as cell-based. The settings on record: 96 h, Alamar Blue cell proliferation inhibition, HCT-116, four days. The method, then:
A representative cell-proliferation assay protocol using Alamar Blue dye (stored at 4° C., use 20 ul per well) is described hereafter.
96-Well Plate Setup and Compound Treatment
a. Split and trypsinize cells.
b. Count cells using hemocytometer.
c. Plate 4,000-5,000 cells per well in 100 μl of medium and seed into a 96-well plate according to the following plate layout. Add cell culture medium only to wells B10 to B12. Wells B1 to B9 have cells but no compound added.
d. Add 100 μl of 2× drug dilution to each well in a concentration shown in the plate layout above. At the same time, add 100 μl of media into the control wells (wells B10 to B12). Total volume is 200 μl/well.
e. Incubate four (4) days at 37° C., 5% CO2 in a humidified incubator.
f. Add 20 μl Alamar Blue reagent to each well.
g. Incubate for four (4) hours at 37° C., 5% CO2 in a humidified incubator.
h. Record fluorescence at an excitation wavelength of 544 nm and emission wavelength of 590 nm using a microplate reader.
In the assays, cells are cultured with a test compound for approximately four days, the dye then is added to the cells and fluorescence of […] dye is detected after approximately four hours. Different types of cells can be utilized in the assays (e.g., HCT-116 human colorectal carcinoma cells, PC-3 human prostatic cancer cells and MiaPaca human pancreatic carcinoma cells). Anti-proliferative effects of representative compounds are provided hereafter.
Representative cassette dosing and bioavailability data are given in Table 8, along with cell proliferation inhibition (from Alamar Blue (AB) assay (e.g., Example 45 herein) and rRNA inhibition (from quantitative PCR (QPCR) assay (e.g., Example 46 herein).
On the technique in general: The colour change of resazurin is a common sign of viable cells or microbes.

Assay [2] relates to rDNA. The assay is described as follows: Quantitative PCR (QPCR) assay, rRNA inhibition (rDNA). The settings on record: for Selectivity: not defined in the patent; for pIC50: rRNA inhibition from quantitative PCR assay. Also noted: Selectivity: reference not given here. The assay is classed as cell-based. From the text:
In a specific assay embodiment, provided herein is a method for identifying a molecule that modulates ribosomal RNA (rRNA) synthesis, which comprises: contacting cells with a test molecule of Formula (I), (II), (III), (IV), (V), (VI), (VI′), (VII), or (VIII), contacting a ribosomal nucleotide sequence with one or more primers that amplify a portion thereof and a labeled probe that hybridizes to the amplification product, and detecting the amount of the amplification product by hybridization of the labeled probe, whereby a test molecule that reduces or increases the amount of amplification product is identified as a molecule that modulates rRNA synthesis. The labeled probe in some embodiments is added after the primers are added and the rRNA is amplified, and in certain embodiments, the labeled probe and the primers are added at the same time. The portion of ribosomal nucleotide sequence amplified sometimes is at the 5′ end of rDNA.
Real-time quantitative PCR (QPCR) method may be used to detect the changes of the target c-myc and the endogenous reference GAPDH gene copies in the same tube. Generally, cells (15,000 cells/well) are seeded on 96 well flat bottom plates (Corning, N.Y.) and incubated under normal growth conditions for overnight. The next day, the culture medium is exchanged for that containing anticancer drugs at various concentrations and incubated for 4 hrs in a humidified atmosphere of 5% CO2 at 37° C. Total RNA (tRNA) is extracted using the RNeasy 96 Kit (QIAGEN, CA). The concentration of the tRNA is determined by the RiboGreen RNA Quantitation Reagent (Molecular Probes, OR).
A reverse-transcription (RT) reaction may be conducted using 50 ng of tRNA from each well in a 25 μl reaction containing 1× TaqMan RT buffer, 2.5 uM random hexamers, 5.5 mM MgCl2, 0.5 mM each deoxynucleoside triphosphate (dNTP), 30 U MultiScribe Reverse Transcriptase, and 10 U RNase inhibitor. RT reactions are incubated for 10 min at 25° C., reverse-transcribed for 30 min at 48° C., inactivated for 5 min at 95° C., and placed at 4° C. All RT reagents may be purchased from Applied Biosystems, CA.
Real-Time QPCR reaction may be performed in a 50 μl reaction containing the 5 μl of cDNA, 1× Universal PCR Master Mix, 1× c-myc Pre-Developed Primers and Probe set, and 0.8×GAPDH Pre-Developed Primers and Probe set. Because of the relative abundance of GAPDH gene in Hela, GAPDH primers and probe concentration may be adjusted to get accurate threshold cycles (CT) for both genes in the same tube. The threshold cycle (CT) indicates the fractional cycle number at which the amount of amplified target reaches a fixed threshold. By doing so, the GAPDH amplification is stopped before it can limit the common reactants available for amplification of the c-myc. The ΔRn value represents the normalized reporter signal minus the baseline signal. ΔRn increases during PCR as amplicon copy number increases until the reaction approaches a plateau.
The c-myc probe is labeled with 6FAM™ dye-MGB and the GAPDH probe is labeled with VIC™ dye-MTB. Preincubation is performed for 2 min at 50° C. to activate AmpErase UNG enzyme and then for 10 min at 95° C. to activate AmpliTaq DNA Polymerase. DNA is amplified for 40 cycles of 15 sec at 95° C. and 1 min at 60° C. Human c-myc and GAPDH cDNA are amplified, detected, and quantitated in real time using the ABI Prism 7000 Sequence Detection system (Applied Biosystems, CA), which is set to detect both 6-FAM and VIC reporter dyes simultaneously.
The data may be analyzed using the ABI PRISM Sequence Detection System and Microsoft Excel. Relative quantitation is done using the standard curve and comparative CT method at the same time, and both methods gave equivalent results. The cycle at which the amplification plot crosses the CT is known to accurately reflect relative mRNA values. (See, Heid, et al., Genome Res. (1996) 6:986-994; Gibson, et al., Genome Res. (1996) 6:995-1001). […]

`Cn1c2ccccc2n2c3nc(N4CCOCC4)c(F)cc3c(=O)c(C(=O)NCCN3CCCC3)c12`: the pIC50 (as a rule, the IC50 on a negative log10 scale, so that one unit is a factor of ten) in assay [1] is 6.51. In assay [2], this compound showed a Selectivity of 7 and a negative-log IC50 (pIC50) of 6.50.

For `CN1CCCC1CCNC(=O)c1c(=O)c2cc(F)c(N3CCOCC3)nc2n2c3ccccc3n(C)c12` (stereo not drawn), the pIC50 in assay [1] is 6.68; in assay [2], 6.28. This compound returned a Selectivity in assay [2] of 8.

In assay [1], `O=C(NCCn1ccnc1)c1c(=O)c2ccc(N3CCOCC3)nc2n2c1sc1ccccc12` showed a negative-log IC50 (pIC50) of 6.33. In assay [2], the Selectivity was determined as 24 and the pIC50 was 6.37.

`Cn1ccnc1CNC(=O)c1c(=O)c2ccc(N3CCOCC3)nc2n2c1sc1ccccc12` showed a negative-log IC50 (pIC50) in assay [1] of 6.84. Further, in assay [2], the Selectivity came out at 9 and the pIC50 was 6.76.

In assay [1], `O=C(NCCN1CCOCC1)c1c(=O)c2ccc(N3CCOCC3)nc2n2c1sc1ccccc12` had a pIC50 of 6.34. In assay [2], this compound showed a Selectivity of 16 and a pIC50 of 6.30.

The compound `Cn1ccnc1CNC(=O)c1c(=O)c2cc(F)c(N3CCOCC3)nc2n2c1sc1ccccc12` had a negative-log IC50 (pIC50) in assay [1] of 6.70. Further, in assay [2], the Selectivity is 11 and the pIC50 was 6.87.

In turn, `Cc1nccn1CCNC(=O)c1c(=O)c2ccc(N3CCOCC3)nc2n2c1sc1ccccc12` showed a pIC50 in assay [1] of 6.78. Moreover, in assay [2], the Selectivity came out at 21 and the negative-log IC50 (pIC50) was 7.08.

`O=C(NNC1=NCCN1)c1c(=O)c2cc(F)c(N3CCOCC3)nc2n2c1sc1ccccc12` had a pIC50 in assay [1] of 9.00. For the same compound, in assay [2], the Selectivity is 893 and the pIC50 was 7.55.

`Cn1c2ccccc2n2c3nc(N4CCOCC4)c(F)cc3c(=O)c(C(=O)N3CCN4CCCC4C3)c12` (stereo not drawn): the negative-log IC50 (pIC50) in assay [1] is 6.07; in assay [2] it was 6.08. In assay [2], the Selectivity was 10.

Consider `CN1CCN(c2ccc3c(=O)c(C(=O)NCc4ccccn4)c4sc5ccccc5n4c3n2)CC1`, for which the figures for the pIC50 in assay [1] and in assay [2] were 6.83 and 6.95, respectively. For the same compound, in assay [2], the Selectivity amounted to 111.

For `O=C(NCCNC1CC1)c1c(=O)c2cc(F)c(N3CCOCC3)nc2n2c1sc1ccccc12`, in assay [1], the pIC50 was 6.88. Also, in assay [2], the Selectivity came out at 53 and the pIC50 was 6.61.

Regarding `CN1CCCCC1CNC(=O)c1c(=O)c2ccc(N3CCOCC3)nc2n2c1sc1ccccc12` (stereo not drawn), the pIC50 in assay [1] is 8.22. In assay [2], this compound showed a Selectivity of 2778 and a pIC50 of 8.05.

Regarding `CN1CCCN(C(=O)c2c(=O)c3cc(F)c(N4CCOCC4)nc3n3c2sc2ccccc23)CC1`, in assay [1], the negative logarithm of the IC50 (pIC50) is 6.52. In assay [2], this compound gave a Selectivity of 10 and a pIC50 of 6.63.

In the case of `Cn1ccnc1CNC(=O)c1c(=O)c2cc(N3CCOCC3)nnc2n2c1sc1ccccc12`, the negative-log IC50 (pIC50) in assay [1] is 6.76. In assay [2], this compound had a Selectivity of 53 and a pIC50 of 6.48.

For `CN1CCCC(NC(=O)c2c(=O)c3cc(F)c(N4CCOCC4)nc3n3c2sc2ccccc23)C1` (stereo not drawn), the pIC50 in assay [1] was 7.57. In assay [2], this compound had a Selectivity of 862 and a pIC50 of 7.54.

The compound `O=C(NCC1CCCN1)c1c(=O)c2cc(F)c(N3CCOCC3)nc2n2c1sc1ccccc12` (stereo not drawn) had a negative-log IC50 (pIC50) in assay [1] of 8.05. In addition, in assay [2], the Selectivity worked out at 25 and the pIC50 was 7.80.

In the case of `CN1CCCCC1CNc1ccc2c(=O)c(C(=O)NCc3ccncc3)c3sc4ccccc4n3c2n1` (stereo not drawn), the negative-log IC50 (pIC50) in assay [1] is 8.10. Moreover, in assay [2], the Selectivity came out at 39 and the negative logarithm of the IC50 (pIC50) was 7.17.

In assay [1], `CN1CCCC1CNC(=O)c1c(=O)c2cc(F)c(N3CCOCC3)nc2n2c1sc1ccccc12` (stereo not drawn) gave a pIC50 of 6.89. For the same compound, in assay [2], the Selectivity was found to be 45 and the pIC50 is 6.42.

As for `CN1CCN(c2nc3c(cc2F)c(=O)c(C(=O)NCc2cn(C)cn2)c2sc4ccccc4n23)CC1`, the negative-log IC50 (pIC50) in assay [1] was 6.52. In assay [2], this compound had a Selectivity of 69 and a pIC50 of 6.86.

`O=C(NCCNC1CCC1)c1c(=O)c2ccc(N3CCOCC3)nc2n2c1sc1ccccc12`: the negative logarithm of the IC50 (pIC50) in assay [1] was 6.54. Besides, in assay [2], the Selectivity came out at 16 and the pIC50 was 6.75.

With `CN1CCN(c2ccc3c(=O)c(C(=O)NC4CC4)c4n(C)c5ccccc5n4c3n2)CC1`, the pIC50 in assay [1] was 6.69; in assay [2], 6.90. For the same compound, in assay [2], the Selectivity worked out at 4.

Turning to `O=C(NCCNC1CC1)c1c(=O)c2ccc(N3CCOCC3)nc2n2c1sc1ccccc12` [drawing 604], the pIC50 in assay [1] was 7.19. For the same compound, in assay [2], the Selectivity is given as 39 and the pIC50 is 7.00.

As for `Cc1cnc(CNC(=O)c2c(=O)c3ccc(N4CCN(C)CC4)nc3n3c2sc2ccccc23)cn1` [drawing 619], the pIC50 in assay [1] was 6.41. Also, in assay [2], the Selectivity stood at 13 and the negative-log IC50 (pIC50) was 7.16.

The values above are taken from patent US8853234B2, “Quinolone analogs and methods related thereto” (Senhwa Biosciences, Inc., priority 2007, dated 2014).
